Literature values in patent US20240361407A1, “SYSTEMS AND METHODS FOR GENERATION OF HYPERPOLARIZED MATERIALS” (priority 2021, published 2024).
In brackets after ≈: the same amount, converted by molar mass.

Conditions: aqueous solution

solubility: 60 mM (≈ 6960 µg/mL)
SMILES: O=C(O)/C=C/C(=O)O [fumaric acid]
